Data as given in PubChem BioAssay (NCI).
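Values below derive from 48-hour exposures of cells grown in 96-well plates, with endpoints linearly interpolated between the two concentrations bracketing the appropriate inhibition level. GI50 is the concentration that inhibits growth by half. TGI marks complete inhibition of growth.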

Assays:
Assay in all cases: growth of human tumour cells (NCI), 48 h; in the data active = GI50 below about 0.43 µM; inactive = the rest
MCF7 breast = tested on: MCF7 breast
SK-MEL-2 melanoma = tested on: SK-MEL-2 melanoma
T-47D breast = tested on: T-47D breast
MDA-MB-435 = tested on: MDA-MB-435
UO-31 renal = tested on: UO-31 renal
PC-3 prostate = tested on: PC-3 prostate
SN12C renal = tested on: SN12C renal
OVCAR-4 ovarian = tested on: OVCAR-4 ovarian
RXF 393 renal = tested on: RXF 393 renal
OVCAR-8 ovarian = tested on: OVCAR-8 ovarian
HT29 colon = tested on: HT29 colon
UACC-62 melanoma = tested on: UACC-62 melanoma
SF-539 CNS = tested on: SF-539 CNS
SR leukemia = tested on: SR leukemia
HOP-62 NSCLC = tested on: HOP-62 NSCLC
M14 melanoma = tested on: M14 melanoma
CAKI-1 renal = tested on: CAKI-1 renal
EKVX NSCLC = tested on: EKVX NSCLC
NCI-H226 lung = tested on: NCI-H226 lung
TK-10 renal = tested on: TK-10 renal
NCI-H23 lung = tested on: NCI-H23 lung
SNB-19 CNS = tested on: SNB-19 CNS
NCI/ADR-RES ovarian = tested on: NCI/ADR-RES ovarian
LOX IMVI melanoma = tested on: LOX IMVI melanoma
SK-MEL-5 melanoma = tested on: SK-MEL-5 melanoma
MDA-MB-231 breast = tested on: MDA-MB-231 breast
HS 578T breast = tested on: HS 578T breast
KM12 colon = tested on: KM12 colon
IGROV1 ovarian = tested on: IGROV1 ovarian
HCC-2998 colon = tested on: HCC-2998 colon
DU-145 prostate = tested on: DU-145 prostate
COLO 205 colon = tested on: COLO 205 colon
MDA-N = tested on: MDA-N
K-562 leukemia = tested on: K-562 leukemia
OVCAR-3 ovarian = tested on: OVCAR-3 ovarian
SNB-75 CNS = tested on: SNB-75 CNS
U251 CNS = tested on: U251 CNS
A498 renal = tested on: A498 renal
SK-MEL-28 melanoma = tested on: SK-MEL-28 melanoma
NCI-H460 lung = tested on: NCI-H460 lung
HCT-116 colon = tested on: HCT-116 colon
ACHN renal = tested on: ACHN renal
HL-60(TB) leukemia = tested on: HL-60(TB) leukemia
SW-620 colon = tested on: SW-620 colon
NCI-H522 lung = tested on: NCI-H522 lung
HCT-15 colon = tested on: HCT-15 colon
SF-268 CNS = tested on: SF-268 CNS
SF-295 CNS = tested on: SF-295 CNS
SK-OV-3 ovarian = tested on: SK-OV-3 ovarian
MOLT-4 leukemia = tested on: MOLT-4 leukemia
MALME-3M melanoma = tested on: MALME-3M melanoma
RPMI-8226 leukemia = tested on: RPMI-8226 leukemia
OVCAR-5 ovarian = tested on: OVCAR-5 ovarian
A549 NSCLC = tested on: A549 NSCLC
CCRF-CEM leukemia = tested on: CCRF-CEM leukemia
786-0 renal = tested on: 786-0 renal
BT-549 breast = tested on: BT-549 breast
HOP-92 NSCLC = tested on: HOP-92 NSCLC
UACC-257 melanoma = tested on: UACC-257 melanoma

COc1ccc(N2C(=O)C3c4[nH]c5cccc(C)c5c4C4CCC(C(C)(C)C)CC4C3C2=O)cc1 (stereo unspecified)
2.26 µM: TGI (OVCAR-4 ovarian)
> 10 µM: TGI (MCF7 breast) | TGI (SK-MEL-2 melanoma) | TGI (T-47D breast) | TGI (MDA-MB-435) | TGI (UO-31 renal) | TGI (PC-3 prostate) | TGI (SN12C renal) | TGI (RXF 393 renal) | TGI (OVCAR-8 ovarian) | TGI (HT29 colon) | TGI (UACC-62 melanoma) | TGI (SF-539 CNS) | TGI (SR leukemia) | TGI (HOP-62 NSCLC) | TGI (M14 melanoma) | TGI (CAKI-1 renal) | TGI (EKVX NSCLC) | TGI (NCI-H226 lung) | TGI (TK-10 renal) | TGI (NCI-H23 lung) | TGI (SNB-19 CNS) | TGI (NCI/ADR-RES ovarian) | TGI (LOX IMVI melanoma) | TGI (SK-MEL-5 melanoma) | TGI (MDA-MB-231 breast) | TGI (HS 578T breast) | TGI (KM12 colon) | TGI (IGROV1 ovarian) | TGI (HCC-2998 colon) | TGI (DU-145 prostate) | TGI (COLO 205 colon) | TGI (MDA-N) | TGI (K-562 leukemia) | TGI (OVCAR-3 ovarian) | TGI (SNB-75 CNS) | TGI (U251 CNS) | TGI (A498 renal) | TGI (SK-MEL-28 melanoma) | TGI (NCI-H460 lung) | TGI (HCT-116 colon) | TGI (ACHN renal) | TGI (HL-60(TB) leukemia) | TGI (SW-620 colon) | TGI (NCI-H522 lung) | TGI (HCT-15 colon) | TGI (SF-268 CNS) | TGI (SF-295 CNS) | TGI (SK-OV-3 ovarian) | TGI (MOLT-4 leukemia) | TGI (MALME-3M melanoma) | TGI (RPMI-8226 leukemia) | TGI (OVCAR-5 ovarian) | TGI (A549 NSCLC)

COc1cc(/C=C2\COc3ccc(O)c(O)c3C2=O)cc(OC)c1
17.3 µM: TGI (SK-OV-3 ovarian)
3.5 µM: TGI (HCC-2998 colon)
8.24 µM: TGI (SN12C renal)
46.5 µM: TGI (NCI/ADR-RES ovarian)
active: GI50 (NCI-H522 lung) 171 nM
4.17 µM: TGI (RPMI-8226 leukemia)
5.53 µM: TGI (EKVX NSCLC)
3.78 µM: TGI (786-0 renal)
4.55 µM: TGI (M14 melanoma)
3.74 µM: TGI (ACHN renal)
7.85 µM: TGI (PC-3 prostate)
11.5 µM: TGI (OVCAR-5 ovarian)
12.1 µM: TGI (A549 NSCLC)
10.9 µM: TGI (SNB-75 CNS)
7.47 µM: TGI (SNB-19 CNS)
6.89 µM: TGI (TK-10 renal)
8 µM: TGI (T-47D breast)
3.95 µM: TGI (SF-539 CNS)
17.1 µM: TGI (HS 578T breast)
11.2 µM: TGI (HL-60(TB) leukemia)
14.2 µM: TGI (OVCAR-4 ovarian)
inactive: GI50 (CCRF-CEM leukemia) 505 nM | GI50 (MCF7 breast) 1710 nM | GI50 (SK-MEL-2 melanoma) 1930 nM | GI50 (T-47D breast) 1450 nM | GI50 (MDA-MB-435) 1520 nM | GI50 (UO-31 renal) 1020 nM | GI50 (PC-3 prostate) 1610 nM | GI50 (SN12C renal) 1630 nM | GI50 (OVCAR-4 ovarian) 2200 nM | GI50 (RXF 393 renal) 1470 nM | GI50 (OVCAR-8 ovarian) 944 nM | GI50 (HT29 colon) 2780 nM | GI50 (UACC-62 melanoma) 1420 nM | GI50 (SF-539 CNS) 1840 nM | GI50 (SR leukemia) 852 nM | GI50 (HOP-62 NSCLC) 3.66 µM | GI50 (M14 melanoma) 1560 nM | GI50 (CAKI-1 renal) 1270 nM | GI50 (EKVX NSCLC) 2120 nM | GI50 (NCI-H226 lung) 4.94 µM | GI50 (TK-10 renal) 2260 nM | GI50 (786-0 renal) 1540 nM | GI50 (BT-549 breast) 1560 nM | GI50 (NCI-H23 lung) 2360 nM | GI50 (SNB-19 CNS) 2170 nM | GI50 (NCI/ADR-RES ovarian) 2240 nM | GI50 (LOX IMVI melanoma) 1280 nM | GI50 (SK-MEL-5 melanoma) 1720 nM | GI50 (MDA-MB-231 breast) 2470 nM | GI50 (HS 578T breast) 2660 nM | GI50 (KM12 colon) 1540 nM | GI50 (IGROV1 ovarian) 1360 nM | GI50 (HCC-2998 colon) 1850 nM | GI50 (DU-145 prostate) 1710 nM | GI50 (COLO 205 colon) 1750 nM | GI50 (K-562 leukemia) 471 nM | GI50 (OVCAR-3 ovarian) 596 nM | GI50 (SNB-75 CNS) 2420 nM | GI50 (U251 CNS) 861 nM | GI50 (A498 renal) 5.12 µM | GI50 (SK-MEL-28 melanoma) 2970 nM | GI50 (HOP-92 NSCLC) 1960 nM | GI50 (NCI-H460 lung) 1810 nM | GI50 (HCT-116 colon) 1560 nM | GI50 (ACHN renal) 1540 nM | GI50 (HL-60(TB) leukemia) 842 nM | GI50 (SW-620 colon) 1220 nM | GI50 (UACC-257 melanoma) 1790 nM | GI50 (HCT-15 colon) 483 nM | GI50 (SF-268 CNS) 1680 nM | GI50 (SF-295 CNS) 3.01 µM | GI50 (SK-OV-3 ovarian) 4.57 µM | GI50 (MOLT-4 leukemia) 1540 nM | GI50 (MALME-3M melanoma) 1820 nM | GI50 (RPMI-8226 leukemia) 558 nM | GI50 (OVCAR-5 ovarian) 3.03 µM | GI50 (A549 NSCLC) 2160 nM
5.22 µM: TGI (IGROV1 ovarian)
3.58 µM: TGI (KM12 colon)
2.67 µM: TGI (LOX IMVI melanoma)
4.7 µM: TGI (NCI-H460 lung)
4.97 µM: TGI (BT-549 breast) | TGI (UACC-257 melanoma)
28.2 µM: TGI (NCI-H226 lung)
3.04 µM: TGI (CAKI-1 renal)
1.92 µM: TGI (OVCAR-3 ovarian)
3.13 µM: TGI (SK-MEL-5 melanoma)
3.01 µM: TGI (RXF 393 renal)
10.4 µM: TGI (SK-MEL-28 melanoma)
10.6 µM: TGI (MDA-MB-231 breast)
3.57 µM: TGI (UACC-62 melanoma)
0.403 µM: TGI (NCI-H522 lung)
6.08 µM: TGI (HOP-92 NSCLC) | TGI (MALME-3M melanoma)
3.98 µM: TGI (MDA-MB-435)
> 100 µM: TGI (CCRF-CEM leukemia) | TGI (K-562 leukemia)
7.02 µM: TGI (NCI-H23 lung)
4.09 µM: TGI (U251 CNS)
5.68 µM: TGI (COLO 205 colon)
9.09 µM: TGI (SF-295 CNS)
5.23 µM: TGI (SK-MEL-2 melanoma)
3.61 µM: TGI (HCT-116 colon)
53.1 µM: TGI (MOLT-4 leukemia)
18.3 µM: TGI (OVCAR-8 ovarian)
19.1 µM: TGI (A498 renal)
14.6 µM: TGI (MCF7 breast)
11.6 µM: TGI (HOP-62 NSCLC)
12.5 µM: TGI (SR leukemia)
5.34 µM: TGI (SF-268 CNS)
10.8 µM: TGI (HCT-15 colon)
2.29 µM: TGI (UO-31 renal)
4 µM: TGI (SW-620 colon)
4.26 µM: TGI (DU-145 prostate)
8.39 µM: TGI (HT29 colon)

O=c1ccn2n1CCCCC2
> 100 µM: TGI (CCRF-CEM leukemia) | TGI (SK-MEL-2 melanoma) | TGI (T-47D breast) | TGI (MDA-MB-435) | TGI (UO-31 renal) | TGI (PC-3 prostate) | TGI (SN12C renal) | TGI (OVCAR-4 ovarian) | TGI (RXF 393 renal) | TGI (OVCAR-8 ovarian) | TGI (HT29 colon) | TGI (UACC-62 melanoma) | TGI (SF-539 CNS) | TGI (SR leukemia) | TGI (HOP-62 NSCLC) | TGI (M14 melanoma) | TGI (CAKI-1 renal) | TGI (EKVX NSCLC) | TGI (NCI-H226 lung) | TGI (TK-10 renal) | TGI (786-0 renal) | TGI (NCI-H23 lung) | TGI (SNB-19 CNS) | TGI (NCI/ADR-RES ovarian) | TGI (LOX IMVI melanoma) | TGI (SK-MEL-5 melanoma) | TGI (MDA-MB-231 breast) | TGI (HS 578T breast) | TGI (KM12 colon) | TGI (IGROV1 ovarian) | TGI (HCC-2998 colon) | TGI (DU-145 prostate) | TGI (COLO 205 colon) | TGI (MDA-N) | TGI (K-562 leukemia) | TGI (OVCAR-3 ovarian) | TGI (U251 CNS) | TGI (A498 renal) | TGI (SK-MEL-28 melanoma) | TGI (HOP-92 NSCLC) | TGI (NCI-H460 lung) | TGI (HCT-116 colon) | TGI (ACHN renal) | TGI (HL-60(TB) leukemia) | TGI (SW-620 colon) | TGI (NCI-H522 lung) | TGI (UACC-257 melanoma) | TGI (HCT-15 colon) | TGI (SF-268 CNS) | TGI (SF-295 CNS) | TGI (SK-OV-3 ovarian) | TGI (MOLT-4 leukemia) | TGI (MALME-3M melanoma) | TGI (RPMI-8226 leukemia) | TGI (OVCAR-5 ovarian) | TGI (A549 NSCLC)
